Data reported in patent publication US20250215030A1, “STAT MODULATORS AND USES THEREOF” (Recludix Pharma, Inc., priority 2022, published 2025).

molecular target: T1, pSTAT3 (pY705-STAT3) (Homo sapiens, UniProt P40763); assay: MSD-pSTAT-PBMC Assay (pSTAT3, IL-6 stimulated); format: cell-based; settings: not given
T1 construct: host or cells: cryopreserved PBMC
Outline: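 Phospho-STAT levels captured on anti-STAT3 or anti-STAT6 plates and detected with anti-pY705 or anti-pY641 antibodies (MSD read-out). Cryopreserved human PBMCs received compound for 3 h before a 10 min pulse of IL-6 (10 ng/mL, STAT3) or IL-4 (1 ng/mL, STAT6). IC50 fitted after unstimulated-background subtraction and DMSO normalization.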

T1 sequence (P40763 whole entry): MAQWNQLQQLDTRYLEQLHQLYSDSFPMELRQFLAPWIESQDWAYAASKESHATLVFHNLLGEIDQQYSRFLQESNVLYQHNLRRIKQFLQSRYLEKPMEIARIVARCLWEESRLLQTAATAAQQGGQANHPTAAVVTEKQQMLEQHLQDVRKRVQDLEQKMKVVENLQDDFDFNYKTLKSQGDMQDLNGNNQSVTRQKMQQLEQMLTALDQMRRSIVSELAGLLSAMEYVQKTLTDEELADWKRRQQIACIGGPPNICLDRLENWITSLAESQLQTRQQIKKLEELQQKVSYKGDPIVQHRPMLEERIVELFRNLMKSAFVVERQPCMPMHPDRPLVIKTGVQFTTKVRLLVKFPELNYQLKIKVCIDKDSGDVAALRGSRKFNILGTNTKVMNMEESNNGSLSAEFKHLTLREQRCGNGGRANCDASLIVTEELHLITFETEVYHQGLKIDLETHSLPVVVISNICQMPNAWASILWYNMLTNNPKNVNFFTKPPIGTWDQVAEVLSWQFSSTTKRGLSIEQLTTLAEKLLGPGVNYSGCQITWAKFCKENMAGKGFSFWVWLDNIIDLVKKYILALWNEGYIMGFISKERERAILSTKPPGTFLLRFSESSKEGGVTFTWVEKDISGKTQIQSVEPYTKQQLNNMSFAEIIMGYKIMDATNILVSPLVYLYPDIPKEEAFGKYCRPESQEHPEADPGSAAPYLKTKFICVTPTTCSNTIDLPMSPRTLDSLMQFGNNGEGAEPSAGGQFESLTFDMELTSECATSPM

Row | SMILES | IC50
1 | CCCOC(=O)[C@H](C)NP(=O)(Oc1ccccc1)C(F)c1ccc2sc(C(=O)N[C@H]3C[C@@H]4C[C@@H]4C[C@H]4CC[C@@H](C(=O)N5CC(c6cc(C(F)F)on6)C5)N4C3=O)cc2c1 (stereo partly drawn) [Compound 381, propyl(((2-(((3S,6S,7aS,8aR,9aR)-3-(3-(5-(difluoromethyl)isoxazol-3-yl)azetidine-1-carbonyl)-5-oxodecahydro-1H-cyclopropa[d]pyrrolo[1,2-a]azocin-6-yl)carbamoyl)benzo[b]thiophen-5-yl)fluoromethyl)(phenoxy)phosphoryl)-L-alaninate] | < 100 nM
2 | CCCOC(=O)[C@H](C)NP(=O)(Oc1ccccc1)C(F)c1ccc2sc(C(=O)N[C@H]3C[C@@H]4C[C@@H]4C[C@H]4CC[C@@H](C(=O)N[C@H]5CN(C(N)=O)C[C@@H]5F)N4C3=O)cc2c1 (stereo partly drawn) [Compound 382, propyl(((2-(((3S,6S,7aS,8aR,9aR)-3-(((3S,4S)-1-carbamoyl-4-fluoropyrrolidin-3-yl)carbamoyl)-5-oxodecahydro-1H-cyclopropa[d]pyrrolo[1,2-a]azocin-6-yl)carbamoyl)benzo[b]thiophen-5-yl)fluoromethyl)(phenoxy)phosphoryl)-L-alaninate] | 100 to 1000 nM
3 | CCCOC(=O)[C@H](C)NP(=O)(Cc1ccc2sc(C(=O)N[C@H]3C[C@H]4C[C@H]4C[C@H]4CC[C@@H](C(=O)N5CC(c6cnccc6CC)C5)N4C3=O)cc2c1)Oc1ccccc1 (stereo partly drawn) [Compound 392, propyl(((2-(((3S,6S,7aR,8aS,9aR)-3-(3-(4-ethylpyridin-3-yl)azetidine-1-carbonyl)-5-oxodecahydro-1H-cyclopropa[d]pyrrolo[1,2-a]azocin-6-yl)carbamoyl)benzo[b]thiophen-5-yl)methyl)(phenoxy)phosphoryl)-L-alaninate] | < 100 nM
4 | CCCOC(=O)[C@H](C)N[P@](=O)(Oc1ccccc1)[C@H](F)c1ccc2sc(C(=O)N[C@H]3C[C@H]4C[C@H]4C[C@H]4CC[C@@H](C(=O)N5CC(c6cnccc6N6CCOCC6)C5)N4C3=O)cc2c1 [Compound 395, propyl((R)-((S)-fluoro(2-(((3S,6S,7aR,8aS,9aR)-3-(3-(4-morpholinopyridin-3-yl)azetidine-1-carbonyl)-5-oxodecahydro-1H-cyclopropa[d]pyrrolo[1,2-a]azocin-6-yl)carbamoyl)benzo[b]thiophen-5-yl)methyl)(phenoxy)phosphoryl)-L-alaninate] | < 100 nM
5 | CCCOC(=O)[C@H](C)N[P@@](=O)(Oc1ccccc1)[C@H](F)c1ccc2sc(C(=O)N[C@H]3C[C@H]4C[C@H]4C[C@H]4CC[C@@H](C(=O)N5CC(c6cnccc6N6CCOCC6)C5)N4C3=O)cc2c1 [Compound 396, propyl((S)-((S)-fluoro(2-(((3S,6S,7aR,8aS,9aR)-3-(3-(4-morpholinopyridin-3-yl)azetidine-1-carbonyl)-5-oxodecahydro-1H-cyclopropa[d]pyrrolo[1,2-a]azocin-6-yl)carbamoyl)benzo[b]thiophen-5-yl)methyl)(phenoxy)phosphoryl)-L-alaninate] | < 100 nM
6 | CCCOC(=O)[C@H](C)NP(=O)(Cc1ccc2sc(C(=O)N[C@H]3C[C@H]4C[C@H]4C[C@H]4CC[C@@H](C(=O)N5CC(c6cnccc6N(C)C)C5)N4C3=O)cc2c1)Oc1ccccc1 (stereo partly drawn) [Compound 397, propyl(((2-(((3S,6S,7aR,8aS,9aR)-3-(3-(4-(dimethylamino)pyridin-3-yl)azetidine-1-carbonyl)-5-oxodecahydro-1H-cyclopropa[d]pyrrolo[1,2-a]azocin-6-yl)carbamoyl)benzo[b]thiophen-5-yl)methyl)(phenoxy)phosphoryl)-L-alaninate] | < 100 nM

same assay, conditions: PBMC, compound 3 hrs, then 10 ng/mL IL-6 for 10 min; MSD pY705-STAT3; read-out: pSTAT3

Row | SMILES | IC50
7 | CCCOC(=O)[C@H](C)NP(=O)(Oc1ccccc1)C(F)c1ccc2sc(C(=O)N[C@H]3C[C@@H]4C[C@@H]4C[C@H]4CC[C@@H](C(=O)N5CC(c6ncco6)C5)N4C3=O)cc2c1 (stereo partly drawn) [Compound 323, propyl ((fluoro(2-(((3S,6S,7aS,8aR,9aR)-3-(3-(oxazol-2-yl)azetidine-1-carbonyl)-5-oxodecahydro-1H-cyclopropa[d]pyrrolo[1,2-a]azocin-6-yl)carbmaoyl)benzo[b]thiophen-5-yl)methyl)(phenoxy)phosphoryl)-L-alaninate] | < 100 nM
8 | CCCOC(=O)[C@H](C)NP(=O)(Oc1ccccc1)C(F)c1ccc2sc(C(=O)N[C@H]3C[C@@H]4C[C@@H]4C[C@H]4CC[C@@H](C(=O)N5CC(c6ncc(C)o6)C5)N4C3=O)cc2c1 (stereo partly drawn) [Compound 325, propyl ((fluoro(2-(((3S,6S,7aS,8aR,9aR)-3-(3-(5-methyloxazol-2-yl)azetidine-1-carbonyl)-5-oxodecahydro-1H-cyclopropa[d]pyrrolo[1,2-a]azocin-6-yl)carbamoyl)benzo[b]thiophen-5-yl)methyl)(phenoxy)phosphoryl)-L-alaninate] | 100 to 1000 nM
9 | CCOC(=O)[C@H](C)NP(=O)(OCC(F)(F)F)C(F)c1ccc2sc(C(=O)N[C@H]3C[C@@H]4C[C@@H]4C[C@H]4CC[C@@H](C(=O)N5CC(c6cnccc6C)C5)N4C3=O)cc2c1 (stereo partly drawn) [Compound 329, ethyl ((fluoro(2-(((3S,6S,7aS,8aR,9aR)-3-(3-(4-methylpyridin-3-yl)azetidine-1-carbonyl)-5-oxodecahydro-1H-cyclopropa[d]pyrrolo[1,2-a]azicin-6-yl)carbamoyl)benzo[b]thiophen-5-yl)methyl)(2,2,2-trifluoroethoxy)phosphoryl)-L-alaninate] | < 100 nM
10 | CCCOC(=O)[C@H](C)NP(=O)(Oc1ccccc1)C(F)c1ccc2sc(C(=O)N[C@H]3C[C@H]4C[C@H]4C[C@H]4CC[C@@H](C(=O)N5CC(c6nncn6C)C5)N4C3=O)cc2c1 (stereo partly drawn) [Compound 332, propyl ((fluoro(2-(((3S,6S,7aR,8aS,9aR)-3-(3-(4-methyl-4H-1,2,4-triazol-3-yl)azetidine-1-carbonyl)-5-oxodecahydro-1H-cyclopropa[d]pyrrolo[1,2-a]azocin-6-yl)carbamoyl)benzo[b]thiophen-5-yl)methyl)(phenoxy)phosphoryl)-L-alaninate] | > 3000 nM
11 | CCCOC(=O)[C@H](C)NP(=O)(Oc1ccccc1)C(F)c1ccc2sc(C(=O)N[C@H]3C[C@H]4C[C@H]4C[C@H]4CC[C@@H](C(=O)N5CC(c6ncccn6)C5)N4C3=O)cc2c1 (stereo partly drawn) [Compound 338, propyl ((fluoro(2-(((3S,6S,7aR,8aS,9aR)-5-oxo-3-(3-(pyrimidin-2-yl)azetidine-1-carbonyl)decahydro-1H-cyclopropa[d]pyrrolo[1,2-a]azocin-6-yl)carbamoyl)benzo[b]thiophen-5-yl)methyl)(phenoxy)phosphoryl)-L-alaninate] | < 100 nM
12 | CCCOC(=O)[C@H](C)NP(=O)(Oc1ccccc1)C(F)c1ccc2sc(C(=O)N[C@H]3C[C@@H]4C[C@@H]4C[C@H]4CC[C@@H](C(=O)N5CC(c6cc(C)on6)C5)N4C3=O)cc2c1 (stereo partly drawn) [Compound 359, propyl ((fluoro(2-(((3S,6S,7aS,8aR,9aR)-3-(3-(5-methylisoxazol-3-yl)azetidine-1-carbonyl)-5-oxodecahydro-1H-cyclopropa[d]pyrrolo[1,2-a]azocin-6-yl)carbamoyl)benzo[b]thiophen-5-yl)methyl)(phenoxy)phosphoryl)-L-alaninate] | < 100 nM
13 | CCCOC(=O)[C@H](C)NP(=O)(Oc1ccccc1)C(F)c1ccc2sc(C(=O)N[C@H]3C[C@@H]4C[C@@H]4C[C@H]4CC[C@@H](C(=O)N5CC(c6nc(C)no6)C5)N4C3=O)cc2c1 (stereo partly drawn) [Compound 360, propyl ((fluoro(2-(((3S,6S,7aS,8aR,9aR)-3-(3-(3-methyl-1,2,4-oxadiazol-5-yl)azetidine-1-carbonyl)-5-oxodecahydro-1H-cyclopropa[d]pyrrolo[1,2-a]azocin-6-yl)carbamoyl)benzo[b]thiophen-5-yl)methyl)(phenoxy)phosphoryl)-L-alaninate] | < 100 nM
14 | CCCOC(=O)[C@H](C)NP(=O)(Oc1ccccc1)C(F)c1ccc2sc(C(=O)N[C@H]3C[C@@H]4C[C@@H]4C[C@H]4CC[C@@H](C(=O)N5CC(c6cc(C)no6)C5)N4C3=O)cc2c1 (stereo partly drawn) [Compound 361, propyl ((fluoro(2-(((3S,6S,7aS,8aR,9aR)-3-(3-(3-methylisoxazol-5-yl)azetidine-1-carbonyl)-5-oxodecahydro-1H-cyclopropa[d]pyrrolo[1,2-a]azocin-6-yl)carbamoyl)benzo[b]thiophen-5-yl)methyl)(phenoxy)phosphoryl)-L-alaninate] | < 100 nM
15 | CCCOC(=O)[C@H](C)NP(=O)(Oc1ccccc1)C(F)c1ccc2sc(C(=O)N[C@H]3C[C@@H]4C[C@@H]4C[C@H]4CC[C@@H](C(=O)N5CC(c6cc(OC)no6)C5)N4C3=O)cc2c1 (stereo partly drawn) [Compound 362, propyl ((fluoro(2-(((3S,6S,7aS,8aR,9aR)-3-(3-(3-methoxyisoxazol-5-yl)azetidine-1-carbonyl)-5-oxodecahydro-1H-cyclopropa[d]pyrrolo[1,2-a]azocin-6-yl)carbamoyl)benzo[b]thiophen-5-yl)methyl)(phenoxy)phosphoryl)-L-alaninate] | < 100 nM
16 | CCCOC(=O)[C@H](C)NP(=O)(Oc1ccccc1)C(F)c1ccc2sc(C(=O)N[C@H]3C[C@@H]4C[C@@H]4C[C@H]4CC[C@@H](C(=O)N5CC(CS(C)(=O)=O)C5)N4C3=O)cc2c1 (stereo partly drawn) [Compound 363, propyl ((fluoro(2-(((3S,6S,7aS,8aR,9aR)-3-(3-((methylsulfonyl)methyl)azetidine-1-carbonyl)-5-oxodecahydro-1H-cyclopropa[d]pyrrolo[1,2-a]azocin-6-yl)carbamoyl)benzo[b]thiophen-5-yl)methyl)(phenoxy)phosphoryl)-L-alaninate] | 100 to 1000 nM
17 | Cc1ccncc1C1CN(C(=O)[C@@H]2CC[C@@H]3C[C@H]4C[C@H]4C[C@H](NC(=O)c4cc5cc(C(F)P(=O)(N[C@@H](C)C(=O)OCC(C)C)Oc6ccccc6)ccc5s4)C(=O)N32)C1 (stereo partly drawn) [Compound 374, isobutyl ((fluoro(2-(((3S,6S,7aS,8aR,9aR)-3-(3-(4-methylpyridin-3-yl)azetidine-1-carbonyl)-5-oxodecahydro-1H-cyclopropa[d]pyrrolo[1,2-a]azocin-6-yl)carbamoyl)benzo[b]thiophen-5-yl)methyl)(phenoxy)phosphoryl)-L-alaninate] | < 100 nM
